In PubChem BioAssay (NCI):
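Step 1: Grow cells in 96-well plates. Step 2: Expose to compound for 48 hours at 5 concentrations. Step 3: Interpolate endpoints linearly; if unreached, use highest concentration. GI50: concentration for 50% inhibition of growth. At the TGI there is no net growth.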

Tests used:
Experiment in all cases: NCI tumour cell line growth inhibition, 48 h
[1] = tested on: NCI/ADR-RES ovarian
[2] = tested on: M14 melanoma
[3] = tested on: HOP-92 NSCLC
[4] = tested on: MOLT-4 leukemia
[5] = tested on: SF-295 CNS
[6] = tested on: NCI-H226 lung
[7] = tested on: OVCAR-5 ovarian
[8] = tested on: 786-0 renal
[9] = tested on: OVCAR-3 ovarian
[10] = tested on: NCI-H522 lung

| SMILES | GI50 [1] [µM] | TGI [1] [µM] | GI50 [2] [µM] | TGI [2] [µM] | GI50 [3] [µM] | TGI [3] [µM] | GI50 [4] [µM] | TGI [4] [µM] | GI50 [5] [µM] | TGI [5] [µM] | GI50 [6] [µM] | TGI [6] [µM] | GI50 [7] [µM] | TGI [7] [µM] | GI50 [8] [µM] | TGI [8] [µM] | GI50 [9] [µM] | TGI [9] [µM] | GI50 [10] [µM] | TGI [10] [µM] |
| --- | --- | --- | --- | --- | --- | --- | --- | --- | --- | --- | --- | --- | --- | --- | --- | --- | --- | --- | --- | --- |
| C=C1C(=O)O[C@H]2[C@H]1CC/C(COC(=O)N[C@H](Cc1c[nH]c3ccccc13)C(=O)OC)=C\CC[C@@]1(C)O[C@@H]21 | 10.6 | 37.9 | 2.06 | 6.08 | 1.94 | 5.87 | 2.5 | 7.54 | 10.7 | 22.7 | 2.2 | 5.73 | 3.25 | 13.8 | 1.28 | 2.95 | 1.44 | 3.07 | 1.52 | 3.22 |
| Cn1cc(-c2nc(-c3cn(C)c4ncccc34)cs2)c2ccccc21 | 0.62 | > 100 | 0.955 | 20.4 | 1.68 | 9.39 | 4.65 | > 100 | 1.22 | 10.8 | 2.29 | 14.4 | 4.92 | 45.1 | 2.68 | 13.7 | 0.414 | 1.71 | 0.402 | 11.9 |
| CCCCNCCCCCNc1cc(OC)cc2cccnc12 | 17.2 | 36.4 | 14.9 | 28.5 | 2.77 | 23 | 18 | 41.1 | 28.4 | 84.9 | 23.8 | 64.5 | 15.1 | 30.9 | 14.6 | 28.2 | 19 | 45.5 | 17.5 | 33.8 |
| CCS(=O)(=O)N1CCN(c2ccc(Nc3ncc(C(N)=O)c(NC4CC4)n3)cc2)CC1 | 9.59 | > 100 | 3.23 | 69 | 4.9 | > 100 | 2.7 | 16.5 | 5.01 | 94.3 | 7.12 | 35.9 | 36.8 | > 100 | 5.31 | > 100 | 5.73 | 31.4 | 14.1 | 44.1 |
| C=CCN1C(=O)[C@]2(SC1=S)[C@H](c1cccc(Cl)c1)CN(C)[C@]21C(=O)NC2C=CC(Cl)=C[C@H]21 (some centres undefined) | 4.18 | 21.2 | 2.35 | 11.9 | 3.17 | 14.9 | 2.07 | 6.82 | 7.29 | 21.4 | 1.59 | 3.98 | 4.35 | 18.1 | 1.51 | 3.48 | 3.43 | 14.2 | 5.79 | 20.6 |
| CCC(C(=O)[C@@H](C)[C@@H](O)[C@H](C)[C@@H]1O[C@@H]([C@@H](CC)C(=O)ONC(=O)c2ccccc2)CC[C@@H]1C)[C@H]1O[C@]2(C=CC(=O)[C@]3(CC[C@@](C)([C@H]4CC[C@](O)(CC)[C@H](C)O4)O3)O2)[C@H](C)C[C@@H]1C (some centres undefined) | 0.374 | 2.28 | 1.32 | 7.5 | 0.141 | 1.87 | 0.729 | 3.32 | 0.384 | 2.08 | 0.749 | 3.56 | 0.498 | 2.18 | 0.981 | 2.26 | 0.0849 | 1.29 | 0.0547 | 1.4 |
| N/C(=N/S(=O)(=O)c1cc(C(=O)Nc2ccc(F)cc2)c(Cl)cc1SCc1ccccc1)Nc1ccccc1O | > 100 | > 100 | 3.87 | 14.4 | 1.9 | 4.02 | 1.55 | 2.99 | 1.95 | 3.66 | 16.3 | 30.9 | 16.4 | 31.3 | 2.3 | 6.01 | 1.44 | 2.81 | 3.88 | 12.5 |
| CC(=O)c1ccc(Oc2c3ccccc3nc3occc23)cc1 | 2.52 | 9.81 | 6.81 | > 100 | 31.6 | > 100 | 5.71 | > 100 | 2.02 | 12.5 | 15.1 | 90.3 | 27.3 | > 100 | 33.3 | > 100 | 2.19 | 6.58 | 4.68 | > 100 |
| O=C(Nc1cc2cc([N+](=O)[O-])ccc2oc1=O)c1cccs1 |  | > 100 |  | > 100 |  | > 100 |  | > 100 |  | > 100 |  | > 100 |  | > 100 |  | > 100 |  | > 100 |  | 84.7 |
| CCC(C)C(=O)OC1CCC=C2C=CC(C)C(CCC3CC(O)CC(=O)O3)C21 (centres undefined) |  | > 100 |  | > 27.5 | 0.79 | > 100 |  | > 100 |  | > 100 |  | > 100 |  | > 100 |  | > 65.9 |  | > 100 |  | 21 |
| C(=C\c1ccc(OCC2CO2)cc1)/C1=NCOC1 (centres undefined) | 3.86 | 14.9 | 14.5 | 88.5 | 1.41 | 13.2 | 3.24 | 16.8 | 28.3 | 84.6 | 16.4 | 34.5 | 16.4 | 37.1 | 17.6 | 53.4 | 7.87 | 29.1 | 3.13 | 13.1 |
| CCOC(=O)c1cc2c(n1Cc1cc(OC)cc(OC)c1)-c1oncc1CC2 | 0.0486 |  | 0.163 | > 100 | 45.2 | > 100 | 0.525 | > 100 | 0.0518 |  | 2.75 | > 100 | 0.474 | > 100 | 0.499 | > 100 | 0.0389 | 0.197 | 0.0404 | > 91.5 |
